Results from US8574563B2 (Bristol-Myers Squibb Company, priority 2006, dated 2013).

Tested on: HCV 1b-377-neo replicon cells
Test: HCV replicon assay, HCV 1b-377-neo replicon cells (1b FRET)
Assay type: cell-based, Hepatitis C virus genotype 1b
Details: Hepatitis C virus, HCV 1b-377-neo replicon cells; HCV 1b genotype; read-out: EC50 range against HCV 1b (Table 2, Range)
Method in brief: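 Compounds were tested in genotype 1b subgenomic replicon cells carrying a neomycin marker, alongside a matched replicon line with an NS5A Y2065H substitution that confers resistance to a reference NS5A inhibitor.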

Compound | EC50 [nM]
COC(=O)N[C@H](C(=O)N1[C@H](c2ncc(-c3ccc(-c4ccc(-c5cnc([C@@H]6C[C@@H]7C[C@@H]7N6C(=O)[C@@H](NC(=O)OC)C(C)C)[nH]5)cc4)cc3)[nH]2)C[C@@H]2C[C@@H]21)C(C)C [Example M122, methyl ((1S)-1-(((1S,3S,5S)-3-(5-(4′-(2-((1S,3S,5S)-2-((2S)-2-((methoxycarbonyl)amino)-3-methylbutanoyl)-2-azabicyclo[3.1.0]hex-3-yl)-1H-imidazol-5-yl)-4-biphenylyl)-1H-imidazol-2-yl)-2-azabicyclo[3.1.0]hex-2-yl)carbonyl)-2-methylpropyl)carbamate] | 1 to 99
COC(=O)N[C@@H](C(=O)N1[C@H](c2ncc(-c3ccc(-c4ccc(-c5cnc([C@@H]6C[C@@H]7C[C@@H]7N6C(=O)[C@H](NC(=O)OC)C(C)C)[nH]5)cc4)cc3)[nH]2)C[C@@H]2C[C@@H]21)C(C)C [Example M123, methyl ((1R)-1-(((1S,3S,5S)-3-(5-(4′-(2-((1S,3S,5S)-2-((2R)-2-((methoxycarbonyl)amino)-3-methylbutanoyl)-2-azabicyclo[3.1.0]hex-3-yl)-1H-imidazol-5-yl)-4-biphenylyl)-1H-imidazol-2-yl)-2-azabicyclo[3.1.0]hex-2-yl)carbonyl)-2-methylpropyl)carbamate] | 1000 to 10000
COC(=O)N[C@@H](C(=O)N1[C@H](c2ncc(-c3ccc(-c4ccc(-c5cnc([C@@H]6C[C@@H]7C[C@@H]7N6C(=O)[C@H](NC(=O)OC)c6ccccc6)[nH]5)cc4)cc3)[nH]2)C[C@@H]2C[C@@H]21)c1ccccc1 [Example M124, dimethyl (4,4′-biphenyldiylbis(1H-imidazole-5,2-diyl(1S,3S,5S)-2-azabicyclo[3.1.0]hexane-3,2-diyl((1R)-2-oxo-1-phenyl-2,1-ethanediyl)))biscarbamate] | 1 to 99
COC(=O)N[C@H](C(=O)N1[C@H](c2ncc(-c3ccc(-c4ccc(-c5cnc([C@@H]6C[C@@H]7C[C@@H]7N6C(=O)[C@@H](NC(=O)OC)C(C)(C)O)[nH]5)cc4)cc3)[nH]2)C[C@@H]2C[C@@H]21)C(C)(C)O [Example M125, methyl ((1S)-2-hydroxy-1-(((1S,3S,5S)-3-(5-(4′-(2-((1S,3S,5S)-2-((2S)-3-hydroxy-2-((methoxycarbonyl)amino)-3-methylbutanoyl)-2-azabicyclo[3.1.0]hex-3-yl)-1H-imidazol-5-yl)-4-biphenylyl)-1H-imidazol-2-yl)-2-azabicyclo[3.1.0]hex-2-yl)carbonyl)-2-methylpropyl)carbamate] | 1 to 99
CC[C@H](NC(=O)OC)C(=O)N1[C@H](c2ncc(-c3ccc(-c4ccc(-c5cnc([C@@H]6C[C@@H]7C[C@@H]7N6C(=O)[C@H](CC)NC(=O)OC)[nH]5)cc4)cc3)[nH]2)C[C@@H]2C[C@@H]21 [Example M126, dimethyl (4,4′-biphenyldiylbis(1H-imidazole-5,2-diyl(1S,3S,5S)-2-azabicyclo[3.1.0]hexane-3,2-diyl((2S)-1-oxo-1,2-butanediyl)))biscarbamate] | 1 to 99
COC(=O)N[C@H](C(=O)N1[C@H](c2ncc(-c3ccc(-c4ccc(-c5cnc([C@@H]6C[C@@H]7C[C@@H]7N6C(=O)[C@@H](NC(=O)OC)C6CC6)[nH]5)cc4)cc3)[nH]2)C[C@@H]2C[C@@H]21)C1CC1 [Example M127, dimethyl (4,4′-biphenyldiylbis(1H-imidazole-5,2-diyl(1S,3S,5S)-2-azabicyclo[3.1.0]hexane-3,2-diyl((1S)-1-cyclopropyl-2-oxo-2,1-ethanediyl)))biscarbamate] | 1 to 99
COC(=O)N[C@H](C(=O)N1[C@H](c2ncc(-c3ccc(-c4ccc(-c5cnc([C@@H]6C[C@@H]7C[C@@H]7N6C(=O)[C@@H](NC(=O)OC)C(C)(C)C)[nH]5)cc4)cc3)[nH]2)C[C@@H]2C[C@@H]21)C(C)(C)C [Example M128, methyl ((1S)-1-(((1S,3S,5S)-3-(5-(4′-(2-((1S,3S,5S)-2-((2S)-2-((methoxycarbonyl)amino)-3,3-dimethylbutanoyl)-2-azabicyclo[3.1.0]hex-3-yl)-1H-imidazol-5-yl)-4-biphenylyl)-1H-imidazol-2-yl)-2-azabicyclo[3.1.0]hex-2-yl)carbonyl)-2,2-dimethylpropyl)carbamate] | 1 to 99
COC(=O)NCC(=O)N1[C@H](c2ncc(-c3ccc(-c4ccc(-c5cnc([C@@H]6C[C@@H]7C[C@@H]7N6C(=O)CNC(=O)OC)[nH]5)cc4)cc3)[nH]2)C[C@@H]2C[C@@H]21 [Example M129, methyl (2-((1S,3S,5S)-3-(5-(4′-(2-((1S,3S,5S)-2-(((methoxycarbonyl)amino)acetyl)-2-azabicyclo[3.1.0]hex-3-yl)-1H-imidazol-5-yl)-4-biphenylyl)-1H-imidazol-2-yl)-2-azabicyclo[3.1.0]hex-2-yl)-2-oxoethyl)carbamate] | 1000 to 10000
COC(=O)N[C@@H](C)C(=O)N1[C@H](c2ncc(-c3ccc(-c4ccc(-c5cnc([C@@H]6C[C@@H]7C[C@@H]7N6C(=O)[C@H](C)NC(=O)OC)[nH]5)cc4)cc3)[nH]2)C[C@@H]2C[C@@H]21 [Example M130, methyl ((1S)-2-((1S,3S,5S)-3-(5-(4′-(2-((1S,3S,5S)-2-(N-(methoxycarbonyl)-L-alanyl)-2-azabicyclo[3.1.0]hex-3-yl)-1H-imidazol-5-yl)-4-biphenylyl)-1H-imidazol-2-yl)-2-azabicyclo[3.1.0]hex-2-yl)-1-methyl-2-oxoethyl)carbamate] | 1 to 99
COC(=O)N[C@H](C(=O)N1[C@@H](c2ncc(-c3ccc(-c4ccc(-c5cnc([C@H]6C[C@H]7C[C@H]7N6C(=O)[C@@H](NC(=O)OC)C(C)C)[nH]5)cc4)cc3)[nH]2)C[C@H]2C[C@H]21)C(C)C [Example M131, methyl ((1S)-1-(((1R,3R,5R)-3-(5-(4′-(2-((1R,3R,5R)-2-((2S)-2-((methoxycarbonyl)amino)-3-methylbutanoyl)-2-azabicyclo[3.1.0]hex-3-yl)-1H-imidazol-5-yl)-4-biphenylyl)-1H-imidazol-2-yl)-2-azabicyclo[3.1.0]hex-2-yl)carbonyl)-2-methylpropyl)carbamate] | 0.001 to 0.999
COC(=O)N[C@@H](C)C(=O)N1[C@@H]2C[C@@H]2C[C@H]1c1ncc(-c2ccc(-c3ccc(-c4cnc([C@@H]5C[C@H]6C[C@H]6N5C(=O)[C@H](C)NC(=O)OC)[nH]4)cc3)cc2)[nH]1 [Example M132, methyl ((1S)-2-((1R,3S,5R)-3-(4-(4′-(2-((1R,3S,5R)-2-(N-(methoxycarbonyl)-L-alanyl)-2-azabicyclo[3.1.0]hex-3-yl)-1H-imidazol-4-yl)-4-biphenylyl)-1H-imidazol-2-yl)-2-azabicyclo[3.1.0]hex-2-yl)-1-methyl-2-oxoethyl)carbamate] | 0.001 to 0.999
CC[C@H](NC(=O)OC)C(=O)N1[C@@H]2C[C@@H]2C[C@H]1c1nc(-c2ccc(-c3ccc(-c4c[nH]c([C@@H]5C[C@H]6C[C@H]6N5C(=O)[C@H](CC)NC(=O)OC)n4)cc3)cc2)c[nH]1 [Example M133, dimethyl (4,4′-biphenyl-diylbis(1H-imidazole-4,2-diyl(1R,3S,5R)-2-azabicyclo[3.1.0]hexane-3,2-diyl((2S)-1-oxo-1,2-butanediyl)))biscarbamate] | 0.001 to 0.999
COC(=O)NCC(=O)N1[C@@H]2C[C@@H]2C[C@H]1c1nc(-c2ccc(-c3ccc(-c4c[nH]c([C@@H]5C[C@H]6C[C@H]6N5C(=O)CNC(=O)OC)n4)cc3)cc2)c[nH]1 [Example M134, methyl (2-((1R,3S,5R)-3-(4-(4′-(2-((1R,3S,5R)-2-(((methoxy-carbonyl)amino)acetyl)-2-azabicyclo[3.1.0]hex-3-yl)-1H-imidazol-4-yl)-4-biphenylyl)-1H-imidazol-2-yl)-2-azabicyclo[3.1.0]hex-2-yl)-2-oxoethyl)carbamate] | 1 to 99
COC(=O)N[C@H](C(=O)N1[C@@H]2C[C@@H]2C[C@H]1c1nc(-c2ccc(-c3ccc(-c4c[nH]c([C@@H]5C[C@H]6C[C@H]6N5C(=O)[C@@H](NC(=O)OC)C5CC5)n4)cc3)cc2)c[nH]1)C1CC1 [Example M135, dimethyl (4,4′-biphenyl-diylbis(1H-imidazole-4,2-diyl(1R,3S,5R)-2-azabicyclo[3.1.0]hexane-3,2-diyl((1S)-1-cyclopropyl-2-oxo-2,1-ethanediyl)))biscarbamate] | 0.001 to 0.999
COC(=O)N[C@@H](C(=O)N1[C@@H]2C[C@@H]2C[C@H]1c1nc(-c2ccc(-c3ccc(-c4c[nH]c([C@@H]5C[C@H]6C[C@H]6N5C(=O)[C@H](NC(=O)OC)C(C)C)n4)cc3)cc2)c[nH]1)C(C)C [Example M136, methyl ((1R)-1-(((1R,3S,5R)-3-(4-(4′-(2-((1R,3S,5R)-2-((2R)-2-((methoxycarbonyl)amino)-3-methylbutanoyl)-2-azabicyclo[3.1.0]hex-3-yl)-1H-imidazol-4-yl)-4-biphenylyl)-1H-imidazol-2-yl)-2-azabicyclo[3.1.0]hex-2-yl)carbonyl)-2-methylpropyl)carbamate] | 1 to 99
COC(=O)N[C@@H](C(=O)N1[C@@H]2C[C@@H]2C[C@H]1c1nc(-c2ccc(-c3ccc(-c4c[nH]c([C@@H]5C[C@H]6C[C@H]6N5C(=O)[C@H](NC(=O)OC)c5ccccc5)n4)cc3)cc2)c[nH]1)c1ccccc1 [Example M137, dimethyl (4,4′-biphenyl-diylbis(1H-imidazole-4,2-diyl(1R,3S,5R)-2-azabicyclo[3.1.0]hexane-3,2-diyl((1R)-2-oxo-1-phenyl-2,1-ethanediyl)))biscarbamate] | 0.001 to 0.999
COC(=O)N[C@H](C(=O)N1[C@@H]2C[C@@H]2C[C@H]1c1ncc(-c2ccc(-c3ccc(-c4cnc([C@@H]5C[C@H]6C[C@H]6N5C(C)=O)[nH]4)cc3)cc2)[nH]1)C(C)C [Example M138, methyl ((1S)-1-(((1R,3S,5R)-3-(4-(4′-(2-((1R,3S,5R)-2-acetyl-2-azabicyclo[3.1.0]hex-3-yl)-1H-imidazol-4-yl)-4-biphenylyl)-1H-imidazol-2-yl)-2-azabicyclo[3.1.0]hex-2-yl)carbonyl)-2-methylpropyl)carbamate] | 0.001 to 0.999
COC(=O)N[C@H](C(=O)N1[C@@H]2C[C@@H]2C[C@H]1c1ncc(-c2ccc(-c3ccc(-c4cnc([C@@H]5C[C@H]6C[C@H]6N5C(=O)CCCC[C@@H]5SC[C@@H]6NC(=O)N[C@@H]65)[nH]4)cc3)cc2)[nH]1)C(C)C [Example M139] | 0.001 to 0.999
